Earlier results in patent US10881127B1, “Manufacturing method of water-solubilized solution of mastic resin” (VENN SKINCARE, INC., priority 2019, dated 2021).

Settings: in room temperature or in water

stability of L-ascorbic acid: easily oxidized and broken
SMILES: O=C1O[C@H]([C@@H](O)CO)C(O)=C1O [L-ascorbic acid]
